{
  "source": "patent US5989832A",
  "about": "“Method for screening for non-tetracycline efflux pump inhibitors” (Microcide Pharmaceuticals, Inc., priority 1995, dated 1999)",
  "key": {"P. aeruginosa K385": {"system": "P. aeruginosa K385", "conditions": "cited from earlier work"}, "[1]": {"system": "P. aeruginosa strain 799/61", "test": "[3H]-tetracycline accumulation assay, strain 799/61 without efflux pumps", "type": "cell-based, Pseudomonas aeruginosa", "conditions": "CCCP added", "procedure": "A tetracycline accumulation assay was set up to measure the activity of efflux pumps in P. aeruginosa. The assay measures the accumulation of [3H]-tetracycline in bacteria and was optimized for measuring tetracycline accumulation in P. aeruginosa.\nA new tetracycline steady state equilibrium is reached when CCCP is added to the cell suspension and pH equilibrates in both sides of the membrane."}, "[2]": {"system": "P. aeruginosa strain K385", "test": "microbe, parasite or virus in culture", "type": "cell-based", "conditions": "Pseudomonas aeruginosa, K385, 20 h, read-out: growth inhibition in the absence of ciprofloxacin"}, "P. aeruginosa K799/61 [3]": {"system": "P. aeruginosa K799/61", "test": "Susceptibility to tetracycline and ciprofloxacin, pump deficient mutant K799/61"}, "E. coli HN818": {"system": "E. coli HN818", "test": "Susceptibility to acridine orange, AcrAB pump deficient strain HN818", "type": "cell-based", "conditions": "acridine orange alone", "source_text": "The effect of L-phenylalanyl-L-arginyl-β-naphthylamide was also studied on an AcrAB pump deficient mutant of E. coli which was obtained by transposon mutagenesis in the laboratory of H. Nikaido."}, "mexA-mexB-oprM": {"system": "mexA-mexB-oprM", "conditions": "insertion mutagenesis; cited from earlier work"}, "[4]": {"system": "wild-type strains of P. aeruginosa", "conditions": "cited from earlier work"}, "P. aeruginosa K799/61 [5]": {"system": "P. aeruginosa K799/61", "conditions": "mutant strain k799/61; cited from earlier work"}, "[6]": {"system": "P. aeruginosa PAO1, PAO4098E, K385 and 799/61", "test": "Tetracycline accumulation in four P. aeruginosa strains (basal level)", "type": "cell-based, Pseudomonas aeruginosa", "source_text": "Alternatively, efflux pumps are identified by their ability to lower the accumulation of a substrate in a cell. Efflux pumps involved in drug resistance can be identified because they confer resistance to antibiotics. Efflux pumps involved in multidrug resistance in bacteria usually give an intermediate level of resistance to a broad range of antibiotics. Specific mechanism of resistance, including specific efflux pumps, give a much higher level of resistance to one antibiotic or a group of structurally related antibiotics. […] To identify whether an efflux pump is involved in antibiotic resistance in a given strain, accumulation experiments should be performed using antibiotics that it is suspected are exported by the efflux pump. The protein pattern in electrophoresis of cytoplasmic membrane proteins should be studied to identify the overexpression of a protein or the appearance of a new band in the protein pattern using gel electrophoresis. For Gram-negative bacteria, the outer membrane proteins should also be studied. Since efflux pumps are a common occurrence in most bacteria, the basal level of antibiotic susceptibility of a wild type might be caused by naturally occurring efflux pumps. […] Mutants that overexpress the pumps can be isolated using antibiotic-containing media. These mutants will be more resistant to antibiotics and will accumulate lower levels of antibiotics. […]"}, "AcrAE efflux system": {"system": "AcrAE efflux system", "conditions": "cited from earlier work"}},
  "note": "“Also recorded” adds a separate entry of the source. Like-named read-outs stand apart in the source and are kept apart here. Peptide text beside a SMILES is read from it.",
  "data": [
    {"compound": "c1ccc(-c2ccccn2)nc1", "note": "[2,2'-dipyridyl]", "values": [
      {"measurement": "susceptibility associated with production of a 50-kDa outer membrane protein", "setting": "P. aeruginosa K385", "value": "decreased susceptibility"}
    ]},
    {"compound": "N#CC(C#N)=NNc1cccc(Cl)c1", "note": "[CCCP, carbonyl cyanide m-chlorophenylhydrazone]", "values": [
      {"measurement": "tetracycline accumulation", "setting": "[1]", "value": "lowered the tetracycline accumulation"}
    ]},
    {"compound": "N=C(N)NCCC[C@H](NC(=O)[C@@H](N)Cc1ccccc1)C(=O)Nc1ccc2ccccc2c1", "note": "[L-phenylalanyl-L-arginyl-β-naphthylamide] (HELM PEPTIDE1{F.R.[c1ccc2cc(N[*:1])ccc2c1]}$$$$V2.0)", "values": [
      {"measurement": "inhibition at 10 µg/mL", "setting": "[2]", "value": 1, "unit": "%"},
      {"measurement": "effect on susceptibility to tetracycline and ciprofloxacin", "setting": "P. aeruginosa K799/61 [3]", "value": "no effect"}
    ]},
    {"compound": "CN(C)c1ccc2cc3ccc(N(C)C)cc3nc2c1", "note": "[acridine orange]", "values": [
      {"measurement": "susceptibility of HN818 to acridine orange versus parent strain", "setting": "E. coli HN818", "value": "more susceptible to acridine orange than the parent strain"}
    ]},
    {"compound": "O=C(N[C@H](CO)[C@H](O)c1ccc([N+](=O)[O-])cc1)C(Cl)Cl", "note": "[chloramphenicol]", "values": [
      {"measurement": "susceptibility of the strain with inactivated operon", "setting": "mexA-mexB-oprM", "value": "almost as susceptible as E. coli"},
      {"measurement": "efflux by wild-type strains", "setting": "[4]", "value": "very effectively"},
      {"measurement": "capability of pumping out", "setting": "P. aeruginosa K799/61 [5]", "value": "essentially incapable of pumping out"}
    ]},
    {"compound": "CCn1cc(C(=O)O)c(=O)c2cc(F)c(N3CCNCC3)cc21", "note": "[norfloxacin]", "values": [
      {"measurement": "efflux by wild-type strains", "setting": "[4]", "value": "very effectively"}
    ]},
    {"compound": "CN(C)C1C(=O)C(C(N)=O)=C(O)C2(O)C(=O)C3=C(O)c4c(O)cccc4C(C)(O)C3CC12", "note": "(stereo not shown) [tetracycline]", "values": [
      {"measurement": "susceptibility of the strain with inactivated operon", "setting": "mexA-mexB-oprM", "value": "almost as susceptible as E. coli"},
      {"measurement": "efflux by wild-type strains", "setting": "[4]", "value": "very effectively"},
      {"measurement": "capability of pumping out", "setting": "P. aeruginosa K799/61 [5]", "value": "essentially incapable of pumping out"},
      {"measurement": "tetracycline accumulation, efflux pump overproducer strains", "setting": "[6]; PAO4098E and K385", "value": "accumulated lower amounts of tetracycline"},
      {"measurement": "intracellular accumulation of tetracycline, strain 799/61 versus others", "setting": "[6]; strain 799/61", "value": "highest internal concentration; also recorded: accumulated more tetracycline than the wild type PAO1"}
    ]},
    {"compound": "acriflavine", "values": [
      {"measurement": "steady-state accumulation of acriflavine", "setting": "AcrAE efflux system; acrA mutant vs wild type", "value": "increases at least fivefold"},
      {"measurement": "steady-state accumulation of acriflavine", "setting": "AcrAE efflux system; wild-type acrA+ strain", "value": "extremely low"}
    ]}
  ]
}
